Source: patent publication US8053212B1, “Non-standard nucleoside analogs with reduced epimerization” (priority 2004, dated 2011)

What was measured:
[1] = not given; remark: listed apart in the source
[2] = Epimerization at neutral pH followed by 1H NMR in D2O; format: physicochemical; conditions: room temperature, after one week
Procedure: To measure the rate of epimerization of the nucleoside at neutral pH, a sample was dissolved in D2O and stored at room temperature. The ^1H NMR was measured after several time intervals. […] In particular, the NMR signal arising from H-6 of the heterocycle remained unchanged.

For Nc1[nH]c(=O)c([C@H]2C[C@H](O)[C@@H](CO)O2)cc1[N+](=O)[O-], the “fraction protonated at physiological pH” value was > 80%, the “pseudo first order rate constant of initial epimerization, kpH2” value ([1]; pH 2.0, 37° C., aqueous) was “≈ 10^−4 s^−1” and the “slope of replot of logk versus pH” value ([1]; pH 2.0 to 5.0, 37° C.) was −0.971. For the same compound, the “pseudo first order rate constant of initial epimerization, kpH5” value ([1]; pH 5.0, 37° C., aqueous) was “≈ 2×10^−7 s^−1”, the “epimerization at high pH” value ([1]; pH 11.0, 23° C., 14 days, HPLC) was “no epimerization was detected” and the “change of 1H NMR spectrum (epimerization)” value [2] was “did not change”.
In the case of Nc1[nH]c(=O)c([C@H]2C[C@H](O)[C@@H](CO)O2)cc1[N+](=O)[O-] [nucleoside 4, 6-amino-5-nitro-3-(1′-beta-D-2′-deoxyribofuranosyl)-2(1H)-pyridone], the “"end" value: fraction of starting material remaining at end of reaction” value ([1]; buffer, 336 h, pH 2) is reported as 0.09.
